Residues, ends and D or L forms follow the SMILES beside them.
Target: HLA-DR0901 protein (Homo sapiens, UniProt P01903+P01911, A100R/A103E/D57H/D86V/F55Y/F60I/F76Y/I96F/K127E/L162R/M171V/P40D/Q125H/Q99R/R33Q/R42F/S133A/S66N/T210M/V115G/W38K/Y107V/Y59G/Y89S)
Assay: Peptide binding competition assay, DR0901

Q: With `CC[C@H](C)[C@H](NC(=O)[C@H](CCCCN)NC(=O)[C@H](CC(=O)O)NC(=O)[C@H](CC(C)C)NC(=O)[C@H](C)NC(=O)[C@H](Cc1ccc(O)cc1)NC(=O)[C@H](CC(N)=O)NC(=O)[C@H](Cc1ccccc1)NC(=O)[C@H](CC(N)=O)NC(=O)[C@@H](N)CC(C)C)C(=O)N[C@H](C(=O)N[C@H](C(=O)N[C@@H](CC(=O)O)C(=O)O)C(C)C)[C@@H](C)CC` [LNFNYALDKIIVD] (H-LNFNYALDKIIVD-OH) as the molecule, how does the Kd read?
A: 55 ± 10 nM

Q: How did the Kd turn out when `CC[C@H](C)[C@H](NC(=O)[C@H](CCCCN)NC(=O)[C@H](CC(=O)O)NC(=O)[C@H](CC(C)C)NC(=O)[C@H](CC(=O)O)NC(=O)[C@H](Cc1ccc(O)cc1)NC(=O)[C@H](CC(N)=O)NC(=O)[C@H](Cc1ccccc1)NC(=O)[C@H](CC(N)=O)NC(=O)[C@@H](N)CC(C)C)C(=O)N[C@H](C(=O)N[C@H](C(=O)N[C@@H](CC(=O)O)C(=O)O)C(C)C)[C@@H](C)CC` [LNFNYDLDKIIVD] (H-LNFNYDLDKIIVD-OH) was run?
A: 1040 nM

Q: With `CC[C@H](C)[C@H](NC(=O)[C@H](CCCCN)NC(=O)[C@H](CC(=O)O)NC(=O)[C@H](CC(C)C)NC(=O)[C@H](CCC(=O)O)NC(=O)[C@H](Cc1ccc(O)cc1)NC(=O)[C@H](CC(N)=O)NC(=O)[C@H](Cc1ccccc1)NC(=O)[C@H](CC(N)=O)NC(=O)[C@@H](N)CC(C)C)C(=O)N[C@H](C(=O)N[C@H](C(=O)N[C@@H](CC(=O)O)C(=O)O)C(C)C)[C@@H](C)CC` [LNFNYELDKIIVD] (H-LNFNYELDKIIVD-OH) as the molecule, how does the Kd read?
A: 116000 nM

Q: How did the Kd turn out when `CC[C@H](C)[C@H](NC(=O)[C@H](CCCCN)NC(=O)[C@H](CC(=O)O)NC(=O)[C@H](CC(C)C)NC(=O)CNC(=O)[C@H](Cc1ccc(O)cc1)NC(=O)[C@H](CC(N)=O)NC(=O)[C@H](Cc1ccccc1)NC(=O)[C@H](CC(N)=O)NC(=O)[C@@H](N)CC(C)C)C(=O)N[C@H](C(=O)N[C@H](C(=O)N[C@@H](CC(=O)O)C(=O)O)C(C)C)[C@@H](C)CC` [LNFNYGLDKIIVD] (H-LNFNYGLDKIIVD-OH) was run?
A: 38 ± 5 nM

Q: Which Kd does the source give for `CC[C@H](C)[C@H](NC(=O)[C@H](CCCCN)NC(=O)[C@H](CC(=O)O)NC(=O)[C@H](CC(C)C)NC(=O)[C@H](Cc1c[nH]cn1)NC(=O)[C@H](Cc1ccc(O)cc1)NC(=O)[C@H](CC(N)=O)NC(=O)[C@H](Cc1ccccc1)NC(=O)[C@H](CC(N)=O)NC(=O)[C@@H](N)CC(C)C)C(=O)N[C@H](C(=O)N[C@H](C(=O)N[C@@H](CC(=O)O)C(=O)O)C(C)C)[C@@H](C)CC` [LNFNYHLDKIIVD] (H-LNFNYHLDKIIVD-OH) here?
A: 80 ± 15 nM

Q: How did the Kd turn out when `CC[C@H](C)[C@H](NC(=O)[C@H](CCCCN)NC(=O)[C@H](CC(=O)O)NC(=O)[C@H](CC(C)C)NC(=O)[C@H](CC(C)C)NC(=O)[C@H](Cc1ccc(O)cc1)NC(=O)[C@H](CC(N)=O)NC(=O)[C@H](Cc1ccccc1)NC(=O)[C@H](CC(N)=O)NC(=O)[C@@H](N)CC(C)C)C(=O)N[C@H](C(=O)N[C@H](C(=O)N[C@@H](CC(=O)O)C(=O)O)C(C)C)[C@@H](C)CC` [LNFNYLLDKIIVD] (H-LNFNYLLDKIIVD-OH) was run?
A: 3600 nM

Q: How did the Kd turn out when `CC[C@H](C)[C@H](NC(=O)[C@H](CCCCN)NC(=O)[C@H](CC(=O)O)NC(=O)[C@H](CC(C)C)NC(=O)[C@H](CCSC)NC(=O)[C@H](Cc1ccc(O)cc1)NC(=O)[C@H](CC(N)=O)NC(=O)[C@H](Cc1ccccc1)NC(=O)[C@H](CC(N)=O)NC(=O)[C@@H](N)CC(C)C)C(=O)N[C@H](C(=O)N[C@H](C(=O)N[C@@H](CC(=O)O)C(=O)O)C(C)C)[C@@H](C)CC` [LNFNYMLDKIIVD] (H-LNFNYMLDKIIVD-OH) was run?
A: 146 ± 9 nM

Q: How did the Kd turn out when `CC[C@H](C)[C@H](NC(=O)[C@H](CCCCN)NC(=O)[C@H](CC(=O)O)NC(=O)[C@H](CC(C)C)NC(=O)[C@H](CC(N)=O)NC(=O)[C@H](Cc1ccc(O)cc1)NC(=O)[C@H](CC(N)=O)NC(=O)[C@H](Cc1ccccc1)NC(=O)[C@H](CC(N)=O)NC(=O)[C@@H](N)CC(C)C)C(=O)N[C@H](C(=O)N[C@H](C(=O)N[C@@H](CC(=O)O)C(=O)O)C(C)C)[C@@H](C)CC` [LNFNYNLDKIIVD] (H-LNFNYNLDKIIVD-OH) was run?
A: 290 ± 90 nM

Q: For `CC[C@H](C)[C@H](NC(=O)[C@H](CCCCN)NC(=O)[C@H](CC(=O)O)NC(=O)[C@H](CC(C)C)NC(=O)[C@@H]1CCCN1C(=O)[C@H](Cc1ccc(O)cc1)NC(=O)[C@H](CC(N)=O)NC(=O)[C@H](Cc1ccccc1)NC(=O)[C@H](CC(N)=O)NC(=O)[C@@H](N)CC(C)C)C(=O)N[C@H](C(=O)N[C@H](C(=O)N[C@@H](CC(=O)O)C(=O)O)C(C)C)[C@@H](C)CC` [LNFNYPLDKIIVD] (H-LNFNYPLDKIIVD-OH), which Kd is on record?
A: 290 ± 70 nM

Q: How did the Kd turn out when `CC[C@H](C)[C@H](NC(=O)[C@H](CCCCN)NC(=O)[C@H](CC(=O)O)NC(=O)[C@H](CC(C)C)NC(=O)[C@H](CCC(N)=O)NC(=O)[C@H](Cc1ccc(O)cc1)NC(=O)[C@H](CC(N)=O)NC(=O)[C@H](Cc1ccccc1)NC(=O)[C@H](CC(N)=O)NC(=O)[C@@H](N)CC(C)C)C(=O)N[C@H](C(=O)N[C@H](C(=O)N[C@@H](CC(=O)O)C(=O)O)C(C)C)[C@@H](C)CC` [LNFNYQLDKIIVD] (H-LNFNYQLDKIIVD-OH) was run?
A: 1500 nM

Q: For `CC[C@H](C)[C@H](NC(=O)[C@H](CCCCN)NC(=O)[C@H](CC(=O)O)NC(=O)[C@H](CC(C)C)NC(=O)[C@H](CCCNC(=N)N)NC(=O)[C@H](Cc1ccc(O)cc1)NC(=O)[C@H](CC(N)=O)NC(=O)[C@H](Cc1ccccc1)NC(=O)[C@H](CC(N)=O)NC(=O)[C@@H](N)CC(C)C)C(=O)N[C@H](C(=O)N[C@H](C(=O)N[C@@H](CC(=O)O)C(=O)O)C(C)C)[C@@H](C)CC` [LNFNYRLDKIIVD] (H-LNFNYRLDKIIVD-OH), which Kd is on record?
A: 1230 nM

Q: Which Kd does the source give for `CC[C@H](C)[C@H](NC(=O)[C@H](CCCCN)NC(=O)[C@H](C)NC(=O)[C@H](CC(C)C)NC(=O)[C@H](CO)NC(=O)[C@H](Cc1ccc(O)cc1)NC(=O)[C@H](CC(N)=O)NC(=O)[C@H](Cc1ccccc1)NC(=O)[C@H](CC(N)=O)NC(=O)[C@@H](N)CC(C)C)C(=O)N[C@H](C(=O)N[C@H](C(=O)N[C@@H](CC(=O)O)C(=O)O)C(C)C)[C@@H](C)CC` [LNFNYSLAKIIVD] (H-LNFNYSLAKIIVD-OH) here?
A: 51 ± 18 nM

Q: With `CC[C@H](C)[C@H](NC(=O)[C@H](C)NC(=O)[C@H](CC(=O)O)NC(=O)[C@H](CC(C)C)NC(=O)[C@H](CO)NC(=O)[C@H](Cc1ccc(O)cc1)NC(=O)[C@H](CC(N)=O)NC(=O)[C@H](Cc1ccccc1)NC(=O)[C@H](CC(N)=O)NC(=O)[C@@H](N)CC(C)C)C(=O)N[C@H](C(=O)N[C@H](C(=O)N[C@@H](CC(=O)O)C(=O)O)C(C)C)[C@@H](C)CC` [LNFNYSLDAIIVD] (H-LNFNYSLDAIIVD-OH) as the molecule, how does the Kd read?
A: 65 ± 20 nM

Q: Which Kd does the source give for `CC[C@H](C)[C@H](NC(=O)[C@H](CC(=O)O)NC(=O)[C@H](CC(=O)O)NC(=O)[C@H](CC(C)C)NC(=O)[C@H](CO)NC(=O)[C@H](Cc1ccc(O)cc1)NC(=O)[C@H](CC(N)=O)NC(=O)[C@H](Cc1ccccc1)NC(=O)[C@H](CC(N)=O)NC(=O)[C@@H](N)CC(C)C)C(=O)N[C@H](C(=O)N[C@H](C(=O)N[C@@H](CC(=O)O)C(=O)O)C(C)C)[C@@H](C)CC` [LNFNYSLDDIIVD] (H-LNFNYSLDDIIVD-OH) here?
A: 176 ± 65 nM

Q: For `CC[C@H](C)[C@H](NC(=O)[C@H](Cc1ccccc1)NC(=O)[C@H](CC(=O)O)NC(=O)[C@H](CC(C)C)NC(=O)[C@H](CO)NC(=O)[C@H](Cc1ccc(O)cc1)NC(=O)[C@H](CC(N)=O)NC(=O)[C@H](Cc1ccccc1)NC(=O)[C@H](CC(N)=O)NC(=O)[C@@H](N)CC(C)C)C(=O)N[C@H](C(=O)N[C@H](C(=O)N[C@@H](CC(=O)O)C(=O)O)C(C)C)[C@@H](C)CC` [LNFNYSLDFIIVD] (H-LNFNYSLDFIIVD-OH), which Kd is on record?
A: 28 ± 6 nM
